Series [1] deals with commercial broilers. Put plainly: Natamycin in feeds formulated for growing large broilers (Example 2). It is filed as in vivo, Gallus domesticus. The text has this:
(§1) Mixed feed was stored in 50 lb capacity feed sacks. Feed was stored by treatment and treatment diets were further identified with color-codes. After each diet had been mixed, three composite samples (approximately 1 lb each) were collected. The amount of feed mixed for each treatment was as follows: [table] Normal, healthy day-old chicks were obtained from a commercial hatchery. Birds were transported from the hatchery location to Denver, Colo. via commercial air freight. Ground transportation was used to transport chicks from Denver to Wellington, Colo. The study started with 1400 commercial broilers of the species Gallus domesticus. Treatments were assigned to pens using randomized block design. The research facility was divided into 10 blocks of 2 pens each. Birds were assigned randomly according to CQR SOPs. Feed was provided ad libitum throughout the study via two hanging 17-inch diameter tube feeders per pen. A chick feeder tray was also placed in each pen for approximately the first 6 days. All birds were placed on their respective treatment diets upon receipt (approx. 0 days of age). All feed added and removed from pens was weighed and recorded. All experimental diet changes were conducted at the same time for both treatment groups.

The conditions of series [2]: cited from earlier work.
Series [3] has as its system commercial broilers. Put plainly: Natamycin feed additive in diets manufactured using a gap extender (Example 3). The format is in vivo, Gallus domesticus.
Text: as §1, with “The natamycin test article” for “Mixed feed”, “mixed into the treatment” for “stored in 50 lb capacity feed sacks. Feed was stored”, “the ConAgra Poultry Company. Once” for “treatment and treatment diets were further identified with color-codes. After”, “1140” for “1400”, “SOPs. [table]” for “SOPs.”

Series [4] relates to commercial broilers. Nature of the series: Natamycin in feeds formulated for portion-control processed broilers (Example 1). The format is in vivo, Gallus domesticus.
Text: as §1, with “1200” for “1400”, “domesticus, the birds being placed into pens (30 male/30 female per pen).” for “domesticus.”, “SOPs. [table]” for “SOPs.”

Where [5] appears, read: 49 days, 1 lbs/ton natamycin in feed ad libitum.

Marks after values point to notes of the source that are not given here.

Turning to `C[C@@H]1C/C=C/C=C/C=C/C=C/[C@H](O[C@@H]2O[C@H](C)[C@@H](O)[C@H](N)[C@@H]2O)C[C@@H]2O[C@](O)(C[C@@H](O)C[C@H]3O[C@@H]3/C=C/C(=O)O1)C[C@H](O)[C@H]2C(=O)O` [Natamycin, natamycin], the “Breast Weight, Treatment Total” value in series [1] (61 days, 1 lbs/ton natamycin in feed ad libitum, 230 birds printed) turned out to be 141.840; in series [4] (43 days, 1 lbs/ton natamycin in feed ad libitum, 230 birds) it was 77.485. Further, the “% Breast, Treatment Average” value in series [1] (61 days, 1 lbs/ton natamycin in feed ad libitum, statistically extremely significant) is reported as 21.72** %; in series [4] (43 days, 1 lbs/ton natamycin in feed ad libitum, statistically extremely significant) it was 22.83** %. For the same compound, the “Breast Weight, Treatment Average” value in series [1] (61 days, 1 lbs/ton natamycin in feed ad libitum, statistics not calculated) was 0.505; in series [4] (43 days, 1 lbs/ton natamycin in feed ad libitum, statistically very significant) it was 0.337*. Moreover, the “Breast weight and breast yield versus control” value in series [1] (over a 61 day period, breast yield increase statistically significant) is “increased breast weight and breast yield”; in series [3] (over a 49 day period, breast yield increase statistically significant) it was “increased breast weight and breast yield”; in series [4] (over a 43 day period, statistically significant) it was “increased breast weight and breast yield”. Besides, the Solubility in water in series [2] is 0.005-0.010 weight/weight percent. Also, the “Breast Weight, Bird Average” value in series [3] (setting [5]) worked out at 0.465. For the same compound, the “Breast Weight, Pen Average” value in series [3] (setting [5]) was determined as 8.315. Also, the “% Breast, Pen Average” value in series [3] (49 days, 1 lbs/ton natamycin in feed ad libitum, statistically significant) is reported as 23.31* %.

Values taken from patent US7910560B2, “Method for increasing breast meat yield in poultry” (Arkion Life Sciences LLC, priority 2003, dated 2011).
